Test results published in PubChem BioAssay (NCI).
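Where inhibition never reached the appropriate level, the endpoint shown equals the highest concentration tested. Otherwise, values were interpolated linearly from a five-concentration, 48-hour dose response in 96-well plates. At the TGI there is no net growth.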

Assays:
Assay in all cases: NCI anticancer screen, dose series, 48 h
KM12 colon = tested on: KM12 colon
SF-295 CNS = tested on: SF-295 CNS
SK-MEL-28 melanoma = tested on: SK-MEL-28 melanoma
UO-31 renal = tested on: UO-31 renal
OVCAR-3 ovarian = tested on: OVCAR-3 ovarian
OVCAR-8 ovarian = tested on: OVCAR-8 ovarian
NCI-H23 lung = tested on: NCI-H23 lung
SK-MEL-5 melanoma = tested on: SK-MEL-5 melanoma
HT29 colon = tested on: HT29 colon
MOLT-4 leukemia = tested on: MOLT-4 leukemia
IGROV1 ovarian = tested on: IGROV1 ovarian
OVCAR-4 ovarian = tested on: OVCAR-4 ovarian

| Compound | TGI (KM12 colon) | TGI (SF-295 CNS) | TGI (SK-MEL-28 melanoma) | TGI (UO-31 renal) | TGI (OVCAR-3 ovarian) | TGI (OVCAR-8 ovarian) | TGI (NCI-H23 lung) | TGI (SK-MEL-5 melanoma) | TGI (HT29 colon) | TGI (MOLT-4 leukemia) | TGI (IGROV1 ovarian) | TGI (OVCAR-4 ovarian) |
| --- | --- | --- | --- | --- | --- | --- | --- | --- | --- | --- | --- | --- |
| CC1C(=O)OC2CC[N+]3(CC(=O)c4ccc(Br)cc4)CC=C(COC(=O)C(C)(O)C1(C)O)C23 (centres undefined) | > 375 µM | > 375 µM | > 375 µM | > 375 µM | > 375 µM | > 17.4 µM | > 375 µM | > 375 µM | > 375 µM | > 375 µM | > 375 µM | > 375 µM |
| CC1=NN(c2cccc(Cl)c2)C2(SCC(=O)N2c2nc3ccccc3s2)/C1=C\c1ccc(Cl)cc1 (centres undefined) | 34.8 µM | 42.7 µM | 72.4 µM | 29.5 µM | 37.2 µM | 40.7 µM | 41.5 µM | 30.8 µM | 42.7 µM | 20.8 µM | 37.8 µM | 55.1 µM |
| Nc1ccccc1CCCC(=O)O | > 100 µM | > 100 µM | > 100 µM | > 100 µM | > 100 µM | > 100 µM | > 100 µM | > 100 µM | > 100 µM | > 100 µM | > 100 µM | > 100 µM |
| Cn1c2ccccc2c2c(-c3ccccc3)[n+]3ccccc3nc21 | 32.7 µM | > 100 µM | 46.7 µM | > 100 µM | 57.7 µM | > 100 µM | 54.1 µM | 33.8 µM | > 100 µM | > 100 µM | 80.9 µM | > 100 µM |
| CN(C)c1ccc(/C=C2/SC(=S)NC2=O)cc1 | > 100 µM | > 100 µM | > 100 µM | > 100 µM | > 100 µM | > 100 µM | > 100 µM | > 100 µM | > 100 µM | > 100 µM | > 100 µM | > 100 µM |
| O=C1C=CC2(O[C@H](c3ccccc3)[C@@H](c3ccccc3)O2)C(SC(=O)c2ccccc2)C1 (some centres undefined) | 6.87 µM | 6.85 µM | 3.55 µM | 2.66 µM | 4.41 µM | 0.516 µM | 3.82 µM | 2.87 µM | 3.89 µM | > 100 µM | 2.86 µM | 5.13 µM |
| O=C(O)CCCCCCC[C@@H]1S[C@H]1CCCCCCO | > 100 µM | > 100 µM | > 100 µM | > 100 µM | > 100 µM | > 100 µM | > 100 µM | > 100 µM | > 100 µM | > 100 µM | > 100 µM | > 100 µM |
| C[n+]1c2ccccc2c(CNc2ccc(S(=O)(=O)N=C(N)N)cc2)c2ccccc21 | 27.7 µM | 23.4 µM | 40.7 µM | 45.5 µM | 48.7 µM | 55.4 µM | 33.3 µM | 22.8 µM | 49.8 µM | 1.7 µM | 66.6 µM | > 100 µM |
| COc1cc2c(cc1OCCCOc1cc(-c3ccc(F)cc3)nc(C)n1)N=C[C@@H]1CCCN1C2=O | 36.2 µM | 31 µM | 44.1 µM | 38.7 µM | 29.4 µM | > 100 µM | 29.4 µM | 40.9 µM | > 100 µM | 61.1 µM | 44.8 µM | > 100 µM |
| CC(C)(C)NCc1cc(Nc2ccnc3cc(Cl)ccc23)cc(-c2ccc(Cl)cc2)c1O | 10.4 µM | 6.23 µM | 3.26 µM | 18.1 µM | 8.75 µM | 14.8 µM | 14 µM | 3.15 µM | 4.42 µM | 4.55 µM | 7.18 µM | 14.5 µM |
| COc1cc(O)cc(/C=C/c2ccc(O)cc2)c1 | 93.7 µM | 84.3 µM | > 100 µM | > 100 µM | > 100 µM | > 100 µM | 96.1 µM | > 100 µM | > 100 µM | > 100 µM | > 100 µM | > 100 µM |
| Cc1ccc(CC(=O)Nc2ccc(NC(=O)/C=C/NC(=O)/C=C/c3ccc(-c4ccccc4)cc3)cc2C(=O)c2ccccc2)cc1 | 14.6 µM | 3.05 µM | 9 µM | 13.7 µM | 4.32 µM | 2.21 µM | 4.2 µM | 5.14 µM | 20.3 µM | 9.16 µM | 2.16 µM | 3.41 µM |
